Results from ChEMBL document CHEMBL1201862, “PubChem BioAssay data set” (2004).
The source made the active and inactive calls.

Key:
[1] = target: Glucose-6-phosphate 1-dehydrogenase (Homo sapiens, UniProt P11413); test: human G6PD enzyme inhibitors, dose response, selectivity assay for P. falciparum G6PD inhibitor project, biochemical, fluorescence (AID 504792); format: functional
[2] = THP-1 cell cytotoxicity, dose response, cytotoxicity control for Vif-APOBEC3G degradation inhibitor project, THP-1 cells (AID 1117359); format: functional; details: Human immunodeficiency virus 1, THP-1
[3] = inhibitors of Vif binding to APOBEC3G peptide, primary screen, biochemical, TR-FRET, GST-Vif 1-94, biotin-A3G peptide, dose response retest (AID 1117319); format: functional;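 further: TR-FRET signal of purified GST-Vif binding a biotinylated A3G peptide; inhibitors lower the FRET signal by blocking Vif and A3G binding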
Protein Tat = target: T1, Protein Tat (Human immunodeficiency virus type 1 group M subtype B (isolate HXB2)(HIV-1), UniProt P04608); format: functional;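 further: tat binding to TAR RNA read out by fluorescence polarization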
T1 sequence (P04608 whole entry): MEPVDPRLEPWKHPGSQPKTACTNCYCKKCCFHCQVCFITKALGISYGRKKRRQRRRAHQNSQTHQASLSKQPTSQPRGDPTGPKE

Genome polyprotein = Genome polyprotein (dengue virus type 2, UniProt P29990); test: Dengue-2 NS5 methyltransferase inhibitors, primary screen, biochemical, confirmation dose response (AID 588689); format: functional
Sequence of Genome polyprotein (P29990 2492-3391 limits assumed): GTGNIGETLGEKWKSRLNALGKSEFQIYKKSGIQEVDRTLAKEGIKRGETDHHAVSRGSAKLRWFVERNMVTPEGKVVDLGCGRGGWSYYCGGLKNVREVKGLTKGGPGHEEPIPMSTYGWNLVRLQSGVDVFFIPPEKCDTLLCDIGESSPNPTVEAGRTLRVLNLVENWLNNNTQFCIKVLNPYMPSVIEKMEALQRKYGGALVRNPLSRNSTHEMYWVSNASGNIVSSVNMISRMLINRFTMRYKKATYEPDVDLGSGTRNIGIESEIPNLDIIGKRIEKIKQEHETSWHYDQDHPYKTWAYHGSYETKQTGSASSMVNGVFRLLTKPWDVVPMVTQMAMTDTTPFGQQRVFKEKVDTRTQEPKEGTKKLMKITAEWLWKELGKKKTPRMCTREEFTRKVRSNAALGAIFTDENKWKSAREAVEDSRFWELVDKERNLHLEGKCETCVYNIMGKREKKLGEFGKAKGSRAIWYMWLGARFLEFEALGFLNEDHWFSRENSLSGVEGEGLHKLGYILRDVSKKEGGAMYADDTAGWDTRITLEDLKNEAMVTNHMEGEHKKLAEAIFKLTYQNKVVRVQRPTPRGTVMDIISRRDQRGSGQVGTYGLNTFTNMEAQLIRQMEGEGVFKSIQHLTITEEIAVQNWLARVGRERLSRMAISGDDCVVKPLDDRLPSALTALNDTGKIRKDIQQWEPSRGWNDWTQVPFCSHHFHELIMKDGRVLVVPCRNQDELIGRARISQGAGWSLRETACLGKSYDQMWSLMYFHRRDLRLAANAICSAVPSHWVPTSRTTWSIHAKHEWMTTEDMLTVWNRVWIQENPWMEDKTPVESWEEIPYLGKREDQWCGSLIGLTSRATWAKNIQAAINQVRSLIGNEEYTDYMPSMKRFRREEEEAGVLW

[4] = target: E3 ubiquitin-protein ligase Mdm2 (Homo sapiens, UniProt Q00987); test: enhancers of MDM2-luciferase reporter signal, concentration-effect titration, project on inhibitors of MDM2 ubiquitin ligase, cellular assay, luminescent readout, 384-well plate format (AID 1394); format: functional;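 further: MDM2 E3 inhibitors raise luminescence so EC50 is for signal enhancement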
Sequence of E3 ubiquitin-protein ligase Mdm2 (Q00987 whole entry): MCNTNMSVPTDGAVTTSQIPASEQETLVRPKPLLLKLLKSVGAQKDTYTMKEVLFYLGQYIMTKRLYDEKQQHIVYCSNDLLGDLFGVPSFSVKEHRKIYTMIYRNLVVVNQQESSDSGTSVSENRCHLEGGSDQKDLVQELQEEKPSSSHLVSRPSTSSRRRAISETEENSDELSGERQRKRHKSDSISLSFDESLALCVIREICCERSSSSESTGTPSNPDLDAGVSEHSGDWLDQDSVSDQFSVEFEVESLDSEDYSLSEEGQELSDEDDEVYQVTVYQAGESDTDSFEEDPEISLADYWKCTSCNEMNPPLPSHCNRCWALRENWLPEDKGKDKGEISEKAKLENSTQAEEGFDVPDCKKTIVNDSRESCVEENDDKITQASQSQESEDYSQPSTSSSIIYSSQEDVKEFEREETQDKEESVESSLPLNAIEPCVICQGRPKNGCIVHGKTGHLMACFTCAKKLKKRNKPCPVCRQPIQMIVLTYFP

[5] = target: Glutathione-S-transferase (Schistosoma japonicum, UniProt Q26513); test: biotin-GST/anti-GST TR-FRET signal inhibitors, dose response, artefact control for Vif-APOBEC3G degradation inhibitor project, biochemical (AID 1117362); format: functional
Sequence of Glutathione-S-transferase (Q26513 whole entry): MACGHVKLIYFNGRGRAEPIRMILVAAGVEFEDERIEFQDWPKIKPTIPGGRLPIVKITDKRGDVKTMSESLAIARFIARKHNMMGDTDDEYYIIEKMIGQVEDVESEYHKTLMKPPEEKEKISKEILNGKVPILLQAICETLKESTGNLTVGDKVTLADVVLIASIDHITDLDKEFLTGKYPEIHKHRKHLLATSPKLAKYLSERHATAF

[6] = target: Neuropeptide Y receptor type 2 (Homo sapiens, UniProt P49146); test: NPY-Y2 antagonist potency, selectivity check, dose response, counter-screen for NPY-Y1 antagonist project, cell-based (AID 1278); format: functional
Sequence of Neuropeptide Y receptor type 2 (P49146 whole entry): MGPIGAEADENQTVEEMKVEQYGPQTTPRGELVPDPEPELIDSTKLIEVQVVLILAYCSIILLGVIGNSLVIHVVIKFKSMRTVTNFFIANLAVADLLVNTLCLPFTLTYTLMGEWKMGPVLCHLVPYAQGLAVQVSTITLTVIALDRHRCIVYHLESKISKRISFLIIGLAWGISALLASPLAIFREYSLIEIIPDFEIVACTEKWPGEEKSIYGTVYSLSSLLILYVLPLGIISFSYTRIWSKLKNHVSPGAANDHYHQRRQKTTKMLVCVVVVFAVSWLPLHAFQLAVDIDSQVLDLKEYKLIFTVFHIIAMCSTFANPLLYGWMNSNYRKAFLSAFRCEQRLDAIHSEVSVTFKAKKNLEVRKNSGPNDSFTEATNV

[7] = target: Peroxisome proliferator-activated receptor gamma/Nuclear receptor coactivator 1 (Homo sapiens, UniProt P37231); format: functional;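 further: agonist potency as compounds enhance coactivator SRC-1 recruitment to PPARgamma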
[8] = target: Peroxisome proliferator-activated receptor gamma/Nuclear receptor coactivator 3 (Homo sapiens, UniProt P37231); format: functional;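 further: agonist potency for raising coactivator recruitment to the receptor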
[9] = target: Peroxisome proliferator-activated receptor gamma/Nuclear receptor coactivator 2 (Homo sapiens, UniProt P37231); format: functional;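 further: agonist potency for raising coactivator recruitment to the receptor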
[10] = target: E3 ubiquitin-protein ligase UHRF1 (Homo sapiens, UniProt Q96T88); test: Counterscreen for inhibitors of 5-meCpG-binding domain protein 2 (MBD2): TRFRET-based biochemical high throughput dose response assay to identify inhibitors of binding of ubiquitin-like with PHD and ring finger domains 1 (UHRF1) to methylated oligonucleotide.
Sequence of E3 ubiquitin-protein ligase UHRF1 (Q96T88 whole entry, the tested form may be a part): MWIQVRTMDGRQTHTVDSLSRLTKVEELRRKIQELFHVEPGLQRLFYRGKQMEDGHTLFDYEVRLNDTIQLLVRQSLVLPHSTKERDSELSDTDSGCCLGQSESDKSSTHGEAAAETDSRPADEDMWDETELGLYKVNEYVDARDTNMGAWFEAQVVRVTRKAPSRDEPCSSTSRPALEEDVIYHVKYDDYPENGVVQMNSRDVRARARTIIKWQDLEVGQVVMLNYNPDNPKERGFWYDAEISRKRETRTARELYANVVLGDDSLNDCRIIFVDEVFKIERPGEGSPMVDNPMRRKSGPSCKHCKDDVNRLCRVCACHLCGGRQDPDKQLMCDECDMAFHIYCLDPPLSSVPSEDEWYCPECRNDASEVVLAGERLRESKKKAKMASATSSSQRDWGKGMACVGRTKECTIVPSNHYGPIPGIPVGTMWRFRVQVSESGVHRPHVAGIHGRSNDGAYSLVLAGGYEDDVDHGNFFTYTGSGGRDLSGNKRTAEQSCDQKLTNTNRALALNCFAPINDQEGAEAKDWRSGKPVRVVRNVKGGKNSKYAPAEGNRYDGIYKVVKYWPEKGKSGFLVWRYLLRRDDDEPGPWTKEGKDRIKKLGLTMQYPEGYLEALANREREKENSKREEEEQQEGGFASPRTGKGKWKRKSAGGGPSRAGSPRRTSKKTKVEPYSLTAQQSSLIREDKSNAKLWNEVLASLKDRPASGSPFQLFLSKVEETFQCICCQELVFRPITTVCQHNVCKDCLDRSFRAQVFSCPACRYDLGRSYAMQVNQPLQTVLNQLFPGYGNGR

[11] = target: G-protein coupled receptor 183 (Homo sapiens, UniProt P32249); test: SAR confirmation of small molecule antagonists of the EBI2 receptor via a luminescent beta-arrestin assa.; format: functional
Sequence of G-protein coupled receptor 183 (P32249 whole entry): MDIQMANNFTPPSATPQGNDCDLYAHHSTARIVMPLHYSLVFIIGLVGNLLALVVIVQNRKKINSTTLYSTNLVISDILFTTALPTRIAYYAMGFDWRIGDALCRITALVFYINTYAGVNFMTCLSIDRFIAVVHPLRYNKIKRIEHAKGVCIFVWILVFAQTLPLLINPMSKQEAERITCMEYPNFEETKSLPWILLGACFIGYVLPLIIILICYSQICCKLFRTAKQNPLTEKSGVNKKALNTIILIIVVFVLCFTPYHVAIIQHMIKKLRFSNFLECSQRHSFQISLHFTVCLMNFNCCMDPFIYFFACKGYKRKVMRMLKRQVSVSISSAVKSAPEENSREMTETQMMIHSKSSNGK

[12] = Vero cell cytotoxicity, dose response, cytotoxicity control for Vif-APOBEC3G degradation inhibitor project, Vero cells (AID 1117358); format: functional; details: Human immunodeficiency virus 1, Vero
[13] = target: Heat shock protein HSP 90-alpha (Homo sapiens, UniProt P07900); format: functional, organism-based

Sequence of Glucose-6-phosphate 1-dehydrogenase (P11413 whole entry): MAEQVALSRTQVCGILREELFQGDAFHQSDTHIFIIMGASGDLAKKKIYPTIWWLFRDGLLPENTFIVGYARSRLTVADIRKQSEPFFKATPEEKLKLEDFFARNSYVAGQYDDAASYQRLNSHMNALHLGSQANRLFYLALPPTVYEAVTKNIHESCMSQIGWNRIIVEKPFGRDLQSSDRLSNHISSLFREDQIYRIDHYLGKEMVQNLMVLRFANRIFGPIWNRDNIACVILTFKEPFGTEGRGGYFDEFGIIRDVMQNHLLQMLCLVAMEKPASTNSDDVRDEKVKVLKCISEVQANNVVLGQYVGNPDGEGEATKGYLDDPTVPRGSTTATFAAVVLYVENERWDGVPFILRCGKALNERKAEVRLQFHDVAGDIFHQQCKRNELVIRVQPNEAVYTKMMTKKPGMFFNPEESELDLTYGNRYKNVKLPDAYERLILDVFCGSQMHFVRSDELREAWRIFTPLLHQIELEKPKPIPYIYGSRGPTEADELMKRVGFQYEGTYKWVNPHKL

Cc1ccc(CNc2ccc(O)cc2)cc1
IC50 [1]: > 80 µM (inactive) | CC50 [2]: > 40 µM (active) | IC50 [3]: > 50.9 µM (active) | IC50 (Protein Tat): 25.5 µM (inconclusive) | IC50 (Genome polyprotein): 92.5 µM (active)

CCn1c(=O)n(CC(=O)Nc2cc(OC)c(OC)c(OC)c2)c(=O)c2ccccc21
EC50 [4]: 13.2 µM (not active)

CC[n+]1ccc(C)c2cc(P(=O)(c3ccccc3)c3ccccc3)ccc21
IC50 [5]: 9.73 µM (active)

Cn1ccnc1C1CCCCN1Cc1nc(-c2ccc3c(c2)OCO3)no1 (stereo not given)
IC50 [6]: > 35 µM (not active) | EC50 [7]: > 79.4 µM (not active) | EC50 [8]: > 79.4 µM (not active) | EC50 [9]: > 79.4 µM (not active)

CC(=O)Nc1sc2c(c1-c1nc3ccccc3s1)CCCNC2
IC50 [10]: 15.3 µM (inactive)

O=C(/C=C/c1ccc(F)cc1)N1CCN(S(=O)(=O)c2ccc(F)cc2)CC1
IC50 [11]: 0.0185 µM (active)

CCCCCCC(=O)N(O)C1CC(=O)N(c2ccc(Br)cc2)C1=O (stereo not given)
CC50 [12]: > 40 µM (active) | AC50 [13]: 3.17 µM (active)
